Source: patent US7662553B2, “Polymorphisms in the ERCC1 gene for predicting treatment outcome” (University of Southern California, priority 2002, dated 2010)

Experiments:
[1] = test system: locally advanced rectal cancer; assay: Pelvic recurrence after 5-FU and pelvic radiation by TS promoter genotype (Example 2); type: in vivo, human; conditions: pre- or post-operative 5-FU and pelvic radiation
Protocol: Methods: Forty-three (43) patients with locally advanced rectal cancer, who were treated with either pre-operative or post-operative 5-FU and pelvic radiation were analyzed. Genomic DNAs were extracted from paraffin-embedded tissue samples. Patients' genotype for the TS polymorphism was determined by polymerase chain reaction (PCR) amplification of TS promoter region.

[2] = test system: locally advanced rectal cancer; assay: Time to local recurrence after adjuvant pelvic irradiation plus 5-FU infusion (Example 1); type: in vivo, human
Protocol: Methods: Seventy-three (73) patients with locally advanced rectal cancer (UICC stage II and III) were selected. They had been previously treated with adjuvant pelvic irradiation (45 Gy) to the whole pelvis with an additional boost up to 54 Gy plus 5-FU infusion therapy following tumor resection tissue acquisition during surgery. QRT-PCR (a fluorescence-based, quantitative real-time detection method (Taqman®)) was performed on RNA extracted from formalin-fixed, paraffin-embedded, laser-capture-microdissected tissue to establish gene expression levels. The mRNA was reverse transcribed to cDNA and the genes of interest were quantified as well as an internal reference gene (β-Actin) as a control. All gene expression levels were log-transformed prior to analysis. The maximal c^2 method of Miller, Siegmund (Miller R. and Siegmund D. Biometrics (1982) 38:1011-1016) and Halpem (Halpem J. (1982) Biometrics 38:1017-1023) was used to determine which gene expression best segregated patients into poor- and good-prognosis subgroups 2000 bootstrap-like simulations were used to estimate the distribution of the maximal c^2 statistics under the null hypothesis of no association.

Compound | Pelvic recurrences, patients ([1]; TS (2/2) and (2/3) genotypes) | Pelvic recurrences, patients ([1]; TS (3/3) genotype) | Probability ± SE of 5-yr recurrence ([2]; total patients n=73, UICC stage II and III, pelvic irradiation 45 Gy with boost up to 54 Gy plus 5-FU infusion after resection) | Median time to recurrence ([2]; total patients n=73, pelvic irradiation plus 5-FU infusion after resection) | Effect on neurotoxicity in patients treated with oxaliplatin (celebrex 200-400 mg day, p<0.01) | Patients who developed grade II or III neurotoxicity (of 56 patients with celebrex therapy in combination with oxaliplatin/5-FU chemotherapy)
O=c1[nH]cc(F)c(=O)[nH]1 [5-FU, 5-fluorouracil] | 37% | 87% | 0.53 ± 0.08 | 57.0 Month | – | –
Cc1ccc(-c2cc(C(F)(F)F)nn2-c2ccc(S(N)(=O)=O)cc2)cc1 [celebrex] | – | – | – | – | protecting against neurotoxicity | 3 patients
